These results are taken from article PMC9783183, “Substrate Recognition Properties from an Intermediate Structural State of the UreA Transporter” (International Journal of Molecular Sciences, 2022).

Like-named read-outs stand apart in the source and are kept apart here.

One series relates to NC(N)=O. In words: cells, lysate or membranes. Conditions: 37.0 °C.
Another series concerns the target T1, UreA N279A (Aspergillus nidulans, UniProt Q5BGB2, N279A).
T1 sequence (Q5BGB2 1-693 N279A): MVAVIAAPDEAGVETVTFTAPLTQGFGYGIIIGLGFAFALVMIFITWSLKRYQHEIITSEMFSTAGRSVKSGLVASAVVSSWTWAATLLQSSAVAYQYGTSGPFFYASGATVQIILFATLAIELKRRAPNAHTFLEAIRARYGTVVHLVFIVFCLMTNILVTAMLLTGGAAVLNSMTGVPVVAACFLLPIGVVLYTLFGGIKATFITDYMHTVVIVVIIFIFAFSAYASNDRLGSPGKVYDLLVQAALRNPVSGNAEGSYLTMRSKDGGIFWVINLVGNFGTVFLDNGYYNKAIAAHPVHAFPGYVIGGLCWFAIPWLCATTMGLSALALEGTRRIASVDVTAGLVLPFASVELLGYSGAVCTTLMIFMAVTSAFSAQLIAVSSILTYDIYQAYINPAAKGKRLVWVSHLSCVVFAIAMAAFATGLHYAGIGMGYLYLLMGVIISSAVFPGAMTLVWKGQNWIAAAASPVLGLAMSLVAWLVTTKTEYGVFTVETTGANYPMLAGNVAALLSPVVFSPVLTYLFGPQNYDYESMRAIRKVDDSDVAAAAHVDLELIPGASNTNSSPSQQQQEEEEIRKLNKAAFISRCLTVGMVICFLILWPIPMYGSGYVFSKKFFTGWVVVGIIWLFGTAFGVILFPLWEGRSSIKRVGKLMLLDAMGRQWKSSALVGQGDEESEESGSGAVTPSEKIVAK
In words: [14C]-urea uptake in germinating conidiospores, UreA N279A mutant. The protocol: (§1) Radiolabelled [^14C]-urea (55.0 mCi mmol^−1) was purchased from Moravek Biochemicals, Brea, CA, USA. [^14C]-urea uptake assays were performed in A. nidulans germinating conidiospores. Initial velocities were measured after 2 min of incubation at 37 °C with a [^14C]-urea concentration of 1.0 μΜ, and are expressed as % of the wt value, in pmoles min^−1/10^7 conidiospores. Apparent Km/i values were obtained directly by performing and analyzing [^14C]-urea uptakes (Prism 3.02: Graph Pad Software, Inc., San Diego, CA, USA), from IC50 values in the presence of various concentrations (0.5–3000 μM) of non-labelled substrates, as previously described. […] The Ki values are then calculated from IC50 values, based on the equation: Ki = IC50/[1 + (S/Km)] […] Transport assays were carried out in at least three independent experiments, in triplicates for each concentration or time point. Background uptake values were corrected by subtracting values measured in the deleted mutants (UreAΔ).

The next series concerns the target T2, UreA W84Y (Aspergillus nidulans, UniProt Q5BGB2, W84Y).
T2 sequence (Q5BGB2 1-693 W84Y): T1 sequence (Q5BGB2 1-693 N279A)
In words: [14C]-urea uptake in germinating conidiospores, UreA W84Y mutant. The protocol: as §1

The next series addresses T3, UreA W84F (Aspergillus nidulans, UniProt Q5BGB2, W84F).
T3 sequence (Q5BGB2 1-693 W84F): T1 sequence (Q5BGB2 1-693 N279A)
Put plainly: [14C]-urea uptake in germinating conidiospores, UreA W84F mutant. The protocol: as §1

In the next series the target is T4, UreA T282A (Aspergillus nidulans, UniProt Q5BGB2, T282A).
T4 sequence (Q5BGB2 1-693 T282A): T1 sequence (Q5BGB2 1-693 N279A)
In words: [14C]-urea uptake in germinating conidiospores, UreA T282A mutant. Conditions: for Vo (%) initial uptake rate: allele T282A, % of wt, [14C]-urea 1.0 μM, 2 min, 37 °C. How it is done:
as §1

The target in the next series is T5, UreA T282S (Aspergillus nidulans, UniProt Q5BGB2, T282S).
T5 sequence (Q5BGB2 1-693 T282S): T1 sequence (Q5BGB2 1-693 N279A)
In words: [14C]-urea uptake in germinating conidiospores, UreA T282S mutant. Conditions: for fold drop in affinity: allele T282S vs wt; for Vo (%) initial uptake rate: allele T282S, % of wt, [14C]-urea 1.0 μM, 2 min, 37 °C. The protocol:
as §1

The next series has as its system UreA W82F. Conditions: cited from earlier work; for affinity relative to wt (in words): allele W82F vs wt, ref [16].
For another series, the target named is T6, UreA wt (Aspergillus nidulans, UniProt Q5BGB2).
T6 sequence (Q5BGB2 1-693): T1 sequence (Q5BGB2 1-693 N279A)
Put plainly: [14C]-urea uptake in germinating conidiospores, wt UreA. The format is cell-based. Conditions: allele wt; for Ki: inhibition of [14C]-urea uptake, Ki from IC50. How it is done: as §1

The next series addresses T7, UreA N279Q (Aspergillus nidulans, UniProt Q5BGB2, N279Q).
T7 sequence (Q5BGB2 1-693 N279Q): T1 sequence (Q5BGB2 1-693 N279A)
In words: [14C]-urea uptake in germinating conidiospores, UreA N279Q mutant. Conditions: for Vo (%) initial uptake rate: allele N279Q, % of wt, [14C]-urea 1.0 μM, 2 min, 37 °C. The protocol: as §1

In another series the target is T8, UreA W84A (Aspergillus nidulans, UniProt Q5BGB2, W84A).
T8 sequence (Q5BGB2 1-693 W84A): T1 sequence (Q5BGB2 1-693 N279A)
Put plainly: [14C]-urea uptake in germinating conidiospores, UreA W84A mutant. How it is done:
as §1

Another series deals with T9, UreA W82Y (Aspergillus nidulans, UniProt Q5BGB2, W82Y).
T9 sequence (Q5BGB2 1-693 W82Y): T1 sequence (Q5BGB2 1-693 N279A)
In words: [14C]-urea uptake in germinating conidiospores, UreA W82Y mutant. Conditions: for Vo (%) initial uptake rate: allele W82Y, % of wt, [14C]-urea 1.0 μM, 2 min, 37 °C. The protocol:
as §1

What is called Km is the concentration of substrate that gives half-maximal velocity. Broadly, the Ki is the equilibrium dissociation constant of an inhibitor or competing ligand from its target.

Procedure for NC(N)=O: [^14C]-urea uptake assays were performed in A. nidulans germinating conidiospores. Initial velocities were measured after 2 min of incubation at 37 °C with a [^14C]-urea concentration of 1.0 μΜ, and are expressed as % of the wt value, in pmoles min^−1/10^7 conidiospores. Apparent Km/i values were obtained directly by performing and analyzing [^14C]-urea uptakes (Prism 3.02: Graph Pad Software, Inc., San Diego, CA, USA), from IC50 values in the presence of various concentrations (0.5–3000 μM) of non-labelled substrates, as previously described [4, 16, 58]. […] The Ki values are then calculated from IC50 values, based on the equation: Ki = IC50/[1 + (S/Km)] […] Transport assays were carried out in at least three independent experiments, in triplicates for each concentration or time point. Background uptake values were corrected by subtracting values measured in the deleted mutants (UreAΔ). Standard deviation was <20%.

“UreA W84Y (Aspergillus nidulans FGSC A4; W84Y)”: the Km in the series with NC(N)=O (other: allele W84Y) worked out at 159 ± 11 µM.

For the molecule `CC(N)=O` [Acetamide, acetamide], the Ki on UreA N279A is 51 ± 5 µM; on UreA W84Y, over 1000 µM; on UreA W84F, 524 ± 42 µM; at UreA T282A it was 361 ± 85 µM; on UreA T282S, 290 ± 12 µM; on UreA W82F (allele W82F, ref Sanguinetti et al. (2014) [8], read-out: Acetamide Ki) it was 198 ± 12 µM. For the same molecule, the Ki on UreA wt (read-out: Acetamide Ki) was found to be 237 ± 14 µM; at UreA N279Q, 87 ± 9 µM; on UreA W84A it was 489 ± 39 µM; at UreA W82Y, 101 ± 16 µM. Besides, the “Ki fold lower as compared to the wt” value is given as “≈ 4.6 fold” on UreA N279A (allele N279A vs wt) and “≈ 2.7 fold” on UreA N279Q (allele N279Q vs wt). In addition, the “fold decrease in affinity” value at UreA T282A (allele T282A vs wt) is recorded as 1.6 fold. Besides, the “affinity relative to wt (in words)” value in the series with UreA W82F is “augmented”.

Turning to “UreA T282S (Aspergillus nidulans FGSC A4; T282S)”, the Km in the series with NC(N)=O (other: allele T282S) was found to be 130 ± 22 µM.

Regarding “UreA N279Q (Aspergillus nidulans FGSC A4; N279Q)”, in the series with NC(N)=O (other: allele N279Q), the Km amounted to 91 ± 6 µM.

Regarding “UreA W84A (Aspergillus nidulans FGSC A4; W84A)”, in the series on NC(N)=O (other: allele W84A), the Km came out at 193 ± 12 µM.

For the molecule “UreA W84F (Aspergillus nidulans FGSC A4; W84F)”, the Km in the series on NC(N)=O (other: allele W84F) turned out to be 96 ± 13 µM.

In the case of `NC(N)=S` [Thiourea, 2-thiourea], the Ki at UreA N279A was over 1000 µM; at UreA W84Y, over 2000 µM; on UreA W84F, over 2000 µM; on UreA T282A, over 1000 µM; on UreA T282S, over 1000 µM; at UreA W82F (allele W82F, ref Sanguinetti et al. (2014) [8], read-out: Thiourea Ki), 447 ± 24 µM. The Ki is 528 ± 42 µM on UreA wt (read-out: Thiourea Ki), 813 ± 59 µM on UreA N279Q, over 2000 µM at UreA W84A and over 1000 µM on UreA W82Y. In addition, at UreA T282A (allele T282A vs wt), the “fold decrease in affinity” value turned out to be 2 fold. The “fold drop in affinity” value on UreA T282S was over 2 fold. In addition, in the series with UreA W82F, the “affinity relative to wt (in words)” value is “augmented”. Besides, the “affinity fold lower than that of the wt” value on UreA N279Q (allele N279Q vs wt) came out at 1.5 fold.

On to `N=C(N)N` [guanidine], for which, in the series with UreA W82F, the “affinity relative to wt (in words)” value is reported as “augmented”.

`NC(N)=O` [Urea, urea]: the “Vo (%) initial uptake rate” value is recorded as 100 ± 5% on UreA N279A (allele N279A, % of wt, [14C]-urea 1.0 μM, 2 min, 37 °C); 46 ± 4% at UreA W84Y (allele W84Y, % of wt, [14C]-urea 1.0 μM, 2 min, 37 °C); 15 ± 2% at UreA W84F (allele W84F, % of wt, [14C]-urea 1.0 μM, 2 min, 37 °C); 14 ± 2% at UreA T282A; 14% at UreA T282A (listed as urea); 65 ± 3% on UreA T282S. Also, the “Vo (%) initial uptake rate” value at UreA T282S (listed as urea) is given as “≈ 65%”; in the series with UreA W82F (allele W82F, % of wt, ref Sanguinetti et al. (2014) [8]), 50 ± 8%; on UreA wt (% of wt, [14C]-urea 1.0 μM, 2 min, 37 °C) it was 100%; at UreA N279Q, 70 ± 3%; at UreA N279Q (listed as urea) it was “≈ 70%”; on UreA W84A (allele W84A, % of wt, [14C]-urea 1.0 μM, 2 min, 37 °C), 20 ± 2%. Besides, the figures for the “Vo (%) initial uptake rate” value on UreA W82Y and on UreA W82Y (listed as urea) were 25 ± 2% and “≈ 25%”, respectively. Besides, the “Km fold lower than that of the wt” value at UreA T282A (allele T282A vs wt) was found to be 3 fold. For the same molecule, the “fold drop in affinity” value on UreA T282S is on record as 5 fold. Moreover, the “affinity relative to wt (in words)” value in the series with UreA W82F was “unchanged”. In the series with UreA W82F (allele W82F, ref Sanguinetti et al. (2014) [8]), the Km was 23 ± 5 µM. In addition, the “affinity fold lower than that of the wt” value on UreA N279Q (allele N279Q vs wt) is 3.5 fold. The “drop in urea affinity” value on UreA W82Y (allele W82Y vs wt) is “≈ 50%”.

As to “UreA T282A (Aspergillus nidulans FGSC A4; T282A)”, in the series with NC(N)=O (other: allele T282A), the Km worked out at 80 ± 27 µM.

“UreA W82Y (Aspergillus nidulans FGSC A4; W82Y)”: in the series with NC(N)=O (other: allele W82Y), the Km came out at 42 ± 5 µM.

“UreA N279A (Aspergillus nidulans FGSC A4; N279A)”: the Km in the series on NC(N)=O (other: allele N279A) came to 30 ± 3 µM.
